From ChEMBL document CHEMBL6074642, “Natural and Bioinspired Lipidic Alkynylcarbinols as Leishmanicidal, Antiplasmodial, Trypanocidal, Fungicidal, Antibacterial, and Antimycobacterial Agents” (J Nat Prod, 2024) come the findings set out here.

One assay deals with Bipolaris sorokiniana. Description: Antifungal activity against Cochliobolus sativus. Format: functional, organism-based.
The test system of assay [1] is Plasmodium falciparum. Description: Antiplasmodial activity against Plasmodium falciparum assessed as parasite growth inhibition. Format: functional, organism-based.
Assay [2] has as its system Leishmania donovani. Description: Antileishmanial activity against Leishmania donovani amastigotes infected in J774 macrophage assessed as inhibition of parasite growth incubated for 48 hrs by luciferase assay. Format: functional, organism-based. The conditions noted are these: J774, 48 h.
Assay [3] has as its system Mycobacterium tuberculosis. Description: Antimycobacterial activity against Mycobacterium tuberculosis Erdman. Format: functional.
The test system of assay [4] is Mycobacterium tuberculosis. Description: Antimycobacterial activity against Mycobacterium tuberculosis H37Rv. Format: functional.
Another assay concerns Mycolicibacterium aurum. Description: Antimycobacterial activity against Mycobacterium aurum. Format: functional.
The subject of assay [5] is Mycolicibacterium smegmatis. Description: Antimycobacterial activity against Mycobacterium smegmatis ATCC 14468. Format: functional.
A further assay concerns Mycolicibacterium phlei. Description: Antimycobacterial activity against Mycobacterium phlei ATCC 11758. Format: functional.
Assay [6] has as its system Mycobacteroides abscessus. Description: Antimycobacterial activity against Mycobacterium abscessus ATCC 19977. Format: functional.
The test system of assay [7] is Mycolicibacterium fortuitum. Description: Antimycobacterial activity against Mycobacterium fortuitum ATCC 6841 assessed as bacterial growth inhibition incubated for 72 hrs by resazurin dye based broth microdilution method. Format: functional. For orientation: The colour change of resazurin is a common sign of viable cells or microbes.
A further assay relates to Trypanosoma brucei. Description: Antitrypanosomal activity against Trypanosoma brucei assessed as inhibition of parasite growth incubated for 72 hrs by resazurin reagent fluorimetric analysis. Format: functional, organism-based.
The subject of assay [8] is Leishmania donovani. Description: Antileishmanial activity against amastigote form of Leishmania donovani infected in BALB/c mouse assessed as inhibition of parasite growth in liver at 10 mg/kg, po measured for 7 days by geimsa staining based analysis relative to control. The following applies: time 7 day. Further details: scale not given: the % may be the effect or the level left. Format: functional.

Assay [9] relates to Pseudomonas aeruginosa. Description: Antibacterial activity against Pseudomonas aeruginosa assessed as reduction in bacterial growth incubated for 24 hrs by broth microdilution method. Format: functional, organism-based. (In broth dilution the organism is exposed to a series of concentrations in liquid medium.)
Assay [10] deals with Mycobacterium intracellulare. Description: Antibacterial activity against Mycobacterium intracellulare. Format: functional, organism-based.
Assay [11] deals with Mycobacterium tuberculosis. Description: Antimycobacterial activity against Mycobacterium tuberculosis H37Rv assessed as inhibition of bacterial growth by MABA assay. Format: functional.
The subject of assay [12] is Mycobacterium tuberculosis. Description: Antimycobacterial activity against Mycobacterium tuberculosis Erdman assessed as inhibition of bacterial growth by MABA assay. Format: functional.
A further assay has as its system Monilinia fructigena. Description: Antifungal activity against Monilinia fructigena. Format: functional, organism-based.
The test system of a further assay is Phytophthora capsici. Description: Antifungal activity against Phytophthora capsici. Format: functional, organism-based.
Assay [13] deals with Pseudomonas aeruginosa. Description: Antibacterial activity against Pseudomonas aeruginosa ATCC 15442 […] assessed as reduction in bacterial growth after 18 to 20 hrs by CLSI-based broth microdilution assay. Format: functional. The conditions noted are these: time 18-20 hrs.
For assay [14], the system named is Staphylococcus aureus. Description: Antibacterial activity against methicillin-resistant Staphylococcus aureus K147 assessed as reduction in bacterial growth. Format: functional.
Assay [15] has as its system Staphylococcus aureus. Description: Antibacterial activity against methicillin-resistant Staphylococcus aureus SAP0017 assessed as reduction in bacterial growth. Format: functional.
Assay [16] deals with Escherichia coli. Description: Antibacterial activity against Escherichia coli DC2. Format: functional.
The subject of assay [17] is Bacillus subtilis. Description: Antibacterial activity against Bacillus subtilis NBRC 3513. Format: functional.
In assay [18] the test system is Plasmodium falciparum. Description: Antiparasitic activity against Plasmodium falciparum K1 assessed as reduction in parasite growth. Format: functional, organism-based.
The subject of assay [19] is Bacillus subtilis. Description: Antibacterial activity against Bacillus subtilis PY79 assessed as reduction in bacterial growth. Format: functional, organism-based.
The subject of assay [20] is Mycobacterium tuberculosis. Description: Antimycobacterial activity against Mycobacterium tuberculosis H37Ra. Format: functional, organism-based.
Assay [21] concerns Mycobacterium tuberculosis. Description: Antimycobacterial activity against Mycobacterium tuberculosis H37Ra ATCC 25177 assessed as reduction in bacterial growth after 7 days by resazurin microtiter assay. Format: functional. The conditions noted are these: H37Ra ATCC 25177, 168 h, time 7 day.
Assay [22] relates to Mycobacterium tuberculosis. Description: Antibacterial activity against Mycobacterium tuberculosis H37Ra assessed as reduction in bacterial growth incubated for 14 days by CLSI protocol based method. Format: functional. The conditions noted are these: 336 h, time 14 day.
Assay [23] concerns Mycolicibacterium smegmatis. Description: Antimycobacterial activity against Mycobacterium smegmatis mc2 155 assessed as reduction in bacterial growth. Format: functional.
For another assay, the system named is Candida albicans. Description: Antifungal activity against Candida albicans ATCC 10231 assessed as fungal growth inhibition. Format: functional.
The test system of assay [24] is Bacillus subtilis. Description: Antibacterial activity against Bacillus subtilis. Format: functional.
In a further assay the test system is Enterococcus faecalis. Description: Antibacterial activity against Enterococcus faecalis. Format: functional.
In another assay the test system is Streptococcus pyogenes. Description: Antibacterial activity against Streptococcus pyogenes assessed as bacterial growth inhibition. Format: functional.
For assay [25], the system named is Leishmania mexicana. Description: Antileishmanial activity against Leishmania mexicana promastigotes. Format: functional, organism-based.
Assay [26] relates to Leishmania mexicana. Description: Antileishmanial activity against Leishmania mexicana amastigotes. Format: functional, organism-based.
The subject of assay [27] is Bacillus subtilis. Description: Antibacterial activity against Bacillus subtilis assessed as reduction in microbial growth. Format: functional.
The test system of assay [28] is Staphylococcus aureus. Description: Antimicrobial activity against methicillin-sensitive Staphylococcus aureus K147 assessed as reduction in microbial growth. Format: functional.
For assay [29], the system named is Escherichia coli. Description: Antibacterial activity against Escherichia coli DC2 assessed as reduction in bacterial growth. Format: functional.
Assay [30] has as its system Mycobacterium tuberculosis. Description: Antimycobacterial activity against Mycobacterium tuberculosis Erdman ATCC 35801. Format: functional.
The subject of assay [31] is Staphylococcus aureus. Description: Antibacterial activity against Staphylococcus aureus SAP0017 assessed as reduction in bacterial growth. Format: functional.

Values after ≈ are worked out from the molar mass of the structure shown.

Molecule `C=C[C@H](O)C#CC#CC/C=C\CCCCCCCC` showed an EC50 in the assay on Bipolaris sorokiniana of 26 µg/mL (≈ 101 µM).

`C=C[C@@H](C#CC#C[C@@H](O)CCCCCCCCC)OC(C)=O`: the IC50 worked out at 0.27 µg/mL (≈ 0.887 µM) in the assay on Plasmodium falciparum [1] and 1300 nM in the assay on Leishmania donovani [2].

As for `C=CC(O)C#CC#CC(O)/C=C\CCCCCCCCOC(C)=O` (stereo not given), the MIC in [3] worked out at 1.4 µg/mL (≈ 4.21 µM); in assay [4], 25 µg/mL (≈ 75.2 µM).

As to `C=C[C@H](O)C#CC#CC(O)/C=C\CCCCCCC` (stereo not given in full), the MIC against Mycolicibacterium aurum stood at 4 µg/mL (≈ 15.4 µM); in assay [5] it was 4 µg/mL (≈ 15.4 µM); in the assay with Mycolicibacterium phlei it was 2 µg/mL (≈ 7.68 µM); in [6], 2 µg/mL (≈ 7.68 µM); in assay [7] it was 4 µg/mL (≈ 15.4 µM).

`C=CC(C#CC#CC(O)CCCCCCCCC)OC(C)=O` (stereo not given): the IC50 in the assay on Trypanosoma brucei stood at 460 nM.

For the molecule `C=C[C@@H](C#CC#C[C@@H](CCCCCCCCC)NCCCC)OC(C)=O`, the Activity in the assay with Leishmania donovani [8] came out at 32%. Further, the IC50 with Leishmania donovani [2] was determined as 30 nM.

As to `CCCCCCCC/C=C\CCCCCCCCC[C@@H](O)C#CC#CCO`, the IC50 in the assay with Pseudomonas aeruginosa [9] worked out at 2900 nM; in assay [10], 17000 nM.

Consider `C=CC(O)C#CC#CC(O)C1OC1CCCCCCC` (stereo not given), for which the MIC in assay [11] and in assay [12] was greater than 60 µg/mL each time.

For `C=CC(O)C#CC#CC(O)c1cccs1` (stereo not given), the values for the EC50 with Monilinia fructigena and in the assay on Phytophthora capsici were 4 µg/mL (≈ 18.3 µM) and 2.1 µg/mL (≈ 9.62 µM), respectively.

Take `C=CC(O)C#CC#CC(O)/C=C\C(O)CCCCCC` (stereo not given): the minimum inhibitory concentration (MIC) with Pseudomonas aeruginosa [13], in the assay with Staphylococcus aureus [14], with Staphylococcus aureus [15], against Escherichia coli [16] and against Bacillus subtilis [17] was 200 µg/mL (≈ 724 µM) throughout.

In the assay on Bipolaris sorokiniana, `C=C[C@@H](O)C#CC#C/C=C/[C@H](O)CCCCCCCC` had an EC50 of 37 µg/mL (≈ 135 µM).

Turning to `C=C[C@H](C#CC#C[C@@H](O)CCCCCCCCC)OC(C)=O`, the IC50 is 8.15 µg/mL (≈ 26.8 µM) in the assay with Plasmodium falciparum [18] and greater than 10000 nM in the assay with Leishmania donovani [2].

In the case of `C#CC(O)/C=C/C(O)CCCC(O)CC#CC(O)C#CCCCCC(=O)CCCCC/C=C/C(O)CCCCCCCCCCCCC(O)C(O)C(O)C#CC(=O)O` (stereo not given), the IC50 in the assay on Bacillus subtilis [19] was determined as 12 µg/mL (≈ 14.8 µM).

Take `CCCC/C=C/C#CC#CC(O)CCCCCCC(=O)O` (stereo not given): the midpoint of inhibition in assay [20], the IC50, lay at 25 µg/mL (≈ 86.1 µM).

With `C=C[C@H](O)C#CC#C[C@@H](CCCCCCCCC)NCCCC`, in the assay on Leishmania donovani [2], the IC50 was 3 nM.

With `C=C[C@@H](C#CC#C[C@@H](CCCCCCCCC)NC(=O)c1ccccc1)OC(C)=O`, in the assay on Leishmania donovani [8], the Activity came to 26%. Besides, the IC50 with Leishmania donovani [2] was determined as 30 nM.

As for `CCCC/C=C/C#CC#CCCCCCCCC(=O)O` [EXOCARPIC ACID], the MIC in assay [21] turned out to be 20 µg/mL (≈ 72.9 µM).

On to `C=C[C@H](O)C#CC#C[C@@H](CCCCCCCCC)NC(=O)c1ccccc1`, for which the IC50 in the assay with Leishmania donovani [2] is 5 nM.

As to `C=C[C@@H](O)C#CC#CC[C@H]1O[C@H]1CCCCCCC`, the minimum inhibitory concentration (MIC) in assay [22] came out at 6.13 µg/mL (≈ 23.5 µM); in assay [23] it was 25 µg/mL (≈ 96 µM).

On to `C=C[C@@H](O)C#CC#C[C@@H](O)c1cccs1`, for which the EC50 with Phytophthora capsici came to 3.3 µg/mL (≈ 15.1 µM).

For `CCCCCCC/C=C\[C@H](O)C#CC#C[C@@H](O)CC` [OPLOPANDIOL], in the assay on Candida albicans, the MIC is 12 µg/mL (≈ 45.7 µM).

Consider `C=C[C@H](O)C#CC#C[C@H](O)CCCCCCCCC`, for which, in the assay on Leishmania donovani [8], the Activity is 41%. For the same molecule, the values for the minimum inhibitory concentration (MIC) in the assay with Bacillus subtilis [24], in the assay on Enterococcus faecalis and in the assay with Streptococcus pyogenes were 2 µM (≈ 0.525 µg/mL), 16 µM (≈ 4.2 µg/mL) and 8 µM (≈ 2.1 µg/mL), respectively. The results for the IC50 in the assay on Plasmodium falciparum [1] and in the assay on Leishmania donovani [2] were 0.271 µg/mL (≈ 1.03 µM) and 13 nM, respectively.

In the case of `C=CCCCCC/C=C\CC#CC#C[C@@H](O)C=C`, the IC50 in the assay on Leishmania mexicana [25] came out at 0.28 µg/mL (≈ 1.16 µM); in the assay on Leishmania mexicana [26], 0.18 µg/mL (≈ 0.743 µM).

Take `C=C[C@H](O)C#CC#C[C@@H](O)/C=C\CCCCCCC`: the MIC with Bacillus subtilis [27] is 12 µg/mL; in the assay with Staphylococcus aureus [28], 12 µg/mL; in the assay with Escherichia coli [29] it was 2.5 µg/mL (≈ 9.6 µM); in [3] it was 6 µg/mL (≈ 23 µM); in assay [30], 6.2 µg/mL (≈ 23.8 µM); in the assay with Staphylococcus aureus [31] it was 25 µg/mL (≈ 96 µM). Besides, the minimum inhibitory concentration (MIC) in [4] is 27 µg/mL (≈ 104 µM).

With `C=C[C@H](C#CC#C[C@H](O)CCCCCCCCC)OC(C)=O`, the results for the IC50 with Plasmodium falciparum [18] and with Leishmania donovani [2] were 8.07 µg/mL (≈ 26.5 µM) and greater than 10000 nM, respectively.

Broadly, the EC50 is the midpoint of the concentration-response curve. In general, IC50 refers to the concentration at which inhibition is half-maximal. For orientation: MIC means the lowest concentration found to suppress growth.
